# From patent publication US6979747B2, “Antioxidants, preparation processes and their uses” (Centre National de la Recherche Scientifique (CNRS), priority 1999, dated 2005)
# Experiments:
# HIV provirus = assay: Quantification of proviral DNAs by PCR (integration of the provirus within the cell genome); assay type: cell-based; conditions: 10 μM
# Description: I-152 is composed of MEA and NAC, which are capable of interacting with the early phases of the biological cycle of HIV. It is therefore capable of decreasing the integration of the provirus into the cell genome. In order to measure these effects, the proviral DNAs were quantified by PCR. The cells were lysed using 1 ml of the following lysis solution: 10 mM Tris HCl pH 8; 100 mM of EDTA pH 8; 0.5% of sodium dodecyl sulfate (SDS); 20 μg/ml of DNAse-free bovine pancreatic RNAse. 200 μg/ml of proteinase K are subsequently added to this suspension. The DNAs were subsequently extracted using 1 ml of an ice-cold saturated phenol solution and 1 ml of a […] solution.
# The viral DNAs were then amplified by means of specific primers of the gag gene (SK01/SK39) and of a standard range of the 8E5 line, a chronically infected line, the cells of which carry a proviral copy. The β-globin gene was used as reporter gene in order to make sure of the quality of the DNA extraction.
# MDMs = assay: Cytotoxicity with respect to MDMs (neutral red); assay type: cell-based, human
# Description: These tests are carried out systematically in parallel with the evaluation of the antiviral activity. In view of the oxidation/reduction capacity of the molecules tested, the test with the tetrazolium salt, which measures the activity of mitochondrial dehydrogenases, cannot be used.
# Neutral red (NR) is a vital dye which makes it possible to measure the viability of adherent cells, such as MDMs. 600 μl of culture supernatant are removed and replaced with 400 μl of an NR solution (0.001% m/v in phosphate buffer, PBS, Boehringer Mannheim), filtered at 0.45 μm. The cells were incubated for 1 h at 37° C. and are subsequently washed (2×1 ml of PBS). The cells are then lysed at −20° C. with 200 μl of a 50% ethanol mixture comprising 1% of glacial acetic acid. The OD is measured twice with 100 μl of solution using a spectrophotometer.
# HIV-1/Ba-L = assay: Antiviral activity in MDM cultures infected with HIV-1/Ba-L (RT activity in culture supernatants); assay type: cell-based; conditions: for antiviral activity (in words): second series, compounds dissolved in DMSO then diluted, MDMs, HIV-1/Ba-L; for EC50: Human immunodeficiency virus 1, BAL, MDMs infected with 10 000 TCID50s HIV-1/Ba-L (m.o.i. 0.01), read-out: inhibiting concentration (50% effective dose)
# Description: A million monocytes in 1 ml of culture medium A are distributed in each well of a 48 well plate (Becton-Dickinson). The monocytes are left to differentiate into macrophages for 7 days. The macrophages thus differentiated are maintained in culture in medium A.
# (§1) The MDMs were infected with the reference isolate with macrophage tropism, HIV-1/Ba-L. The PBMCs and the PBLs were infected with the reference isolate with lymphocyte tropism HIV-1 LAI. The viral stock were formed by amplifying these strains in vitro using umbilical blood mononucleated cells (UBM(s) preactivated with 1 μg/ml of PHA-P and cultured in medium A supplemented by 20 IU/ml of IL-2. In order to remove the soluble factors, such as cytokines, the culture supernatants were ultracentrifuged at 360 000 g for 5 min, and the pellets were resuspended in RPMI 1640. The viral stocks thus formed were subsequently titred using PBMCs activated with PHA-P. The TCID50s (50% Tissue Culture Infectious Dose) were calculated using the Kärber formula.
# (§2) A million MDMs were infected with 10 000 TCID50s of the HIV-1/Ba-L strain. This amount of virus corresponds to a multiplicity of infection (m.o.i.) equal to 0.01. The excess of virus is removed 24 h after by washing with cells using RPMI 1640. The PBLs and the PBMCs were infected with 10 000 TCID50s of the HIV-1 LAI strain (moi=0.01). The cells were washed at the end of the second day of infection.
# (§3) The viral replication is measured by assaying the RT activity in the culture supernatants according to the technique described by F. Rey et al. (Biochem. Biophys. Res. Comm., 1984, 121, 126-133). The radioactivity incorporated during the extension of the complementary strand of a poly-rA synthetic matrix in the presence of an oligo-dT12-18 primer and of a radiolabeled substrate, [^3H-methyl]thymidine-5′-triphosphate ([^3H]TPP), makes it possible to assay the enzymatic activity of RT. 400 μl of supernatant are ultracentrifuged at 360 000 g for 5 min. The RT is released by lysis of the viral pellet in 20 μl of NTE-Triton (100 mM NaCl, 10 mM Tris, 1 mM EDTA, 0.1% Triton X-100). These 20 μl are subsequently incubated with 40 μl of the following reaction mixture: 62.5 mM Tris, pH 7.8; 25 mM KCl; 6.25 mM MgCl2; 1.25 mM dithiothreitol (DTT); 2.5×10^−3 ODU oligo-dT12-18 and poly-rA, 5.55×10^−3 TBq {^3H]TTP. After one hour at 37° C., the enzymatic reaction is halted and the newly synthesized strands are precipitated for 20 min at 4° C. by the addition of 1 ml of sodium pyrophosphate (NaPP), of 50 μl of yeast DNA (0.1 mg/ml in 5% trichluoroacetic acid (TCA)), and of 4 ml of 20% TCA. The mixture is filtered using a cellulose acetate membrane (Millipore) which retains the radiolabeled poly-dT chains. The filter is washed using 20 ml of 5% TCA and the residual water is removed by addition of 25 μl of 70% ethanol. The filter is dried in an oven for 10 minutes at 80° C. and is then introduced into vials containing 8 ml of liquid scintillant. The β radioactivity is quantified by means of a scintillation counter (Packard Bell). The results are expressed in pM of [^3H]-TMP incorporated/h/ml of supernatant or, more simply, in cpm/h/ml.
# The 50% effective doses (ED50) are calculated from the cumulative RT activities using the software “Dose-effects analysis with microcomputers” developed by J. Chou & T. C. Chou.
# PBMCs = conditions: PBMC cultures
# HIV-1 LAI [1] = assay: Antiviral activity in quiescent or PHA-P activated PBMCs infected with HIV-1 LAI; assay type: cell-based; conditions: quiescent and activated PBMCs, at known cytotoxic doses (so in the source)
# Description: (§4) For some experiments, the PBMCs and the PBLs are activated for 48 h with 1 μg/ml of a mitogen, PHA-P (Difco Laboratories). The PBMCs and the PBLs are cultured in medium A (quiescent) or B (activated). The cells are cultured at 37° C. in an atmosphere saturated with moisture under 5% of CO2. The culture supernatants are removed and the culture media are replaced every three or four days. At each renewal of the culture media, the cell viability is evaluated by coloring with trypan blue or by microscopic observation.
# as §1, §2, §3
# The PBMCs, quiescent or activated by PHA-P, were infected by the reference strain with lymphocyte tropism HIV-1 LAI. All the culturings were carried out in parallel and the drugs were maintained throughout the culturing.
# PBLs = conditions: PBL cultures
# [2] = target: T1, RT of the HIV-1 LAI isolate (Human immunodeficiency virus type 1 group M subtype B, UniProt P03367); assay: Acellular test of the enzymatic activity of RT; assay type: biochemical; conditions: for decrease of RT activity: 500 μM
# T1 construct: The RT is released by lysis of the viral pellet in 20 μl of NTE-Triton; endogenous in cells; host or cells: Virions pelleted by ultracentrifugation from supernatants of infected cell cultures
# Description: as §3
# The I-152 molecule is composed of NAC and MEA, which are capable of inhibiting the activity of RT (A. Bergamini et al., J. Clin. Invest., 1994, 93, 2251-2257). For this reason, the inhibiting capacity of I-152 with respect to the RT activity was measured using an acellular test. This test was carried out according to the protocol described above (§ 3.3.3.1.). In the reaction mixture, only the 20 μl of water are replaced by 20 μl of a concentration of I-152 or of the reference compounds. Heparin, known for inhibiting the activity of RT and of the other DNA polymerases, is used as positive control for inhibition.
# [3] = tested on: total glutathione (GSH+GSSG); assay: Total intracellular glutathione in quiescent PBMCs; assay type: cell-based, human; conditions: quiescent PBMCs; for effect on intracellular level of glutathione (in words): 24 h treatment
# GSH = assay: Intracellular GSH in MDMs infected with HIV-1/Ba-L; assay type: cell-based, human; conditions: conditions of stress
# Description: The intracellular GSH was assayed by means of the assay kit sold by Cayman. This method for assaying glutathione is an adaptation of that described by O. W. Griffith et al. (1980).
# The compound I-152 and its derivatives are prepared extemporaneously by being dissolved in dimethyl sulfoxide (DMSO) at the concentration of 100 mM. They are subsequently stored at −20° C. after having been diluted 10 fold in phosphate buffer (PBS).
# HIV-1 LAI [4] = assay: Antiviral activity in quiescent or PHA-P activated PBLs infected with HIV-1 LAI; assay type: cell-based; conditions: quiescent PBLs or PBLs activated by PHA-P
# Description: as §4, §1
# A million MDMs were infected with 10 000 TCID50s of the HIV-1/Ba-L strain. This amount of virus corresponds to a multiplicity of infection (m.o.i.) equal to 0.01. The excess of virus is removed 24 h after by washing with cells using RPMI 1640. […]
# The viral replication is measured by assaying the RT activity in the culture supernatants according to the technique described by F. Rey et al. (Biochem. Biophys. Res. Comm., 1984, 121, 126-133). The radioactivity incorporated during the extension of the complementary strand of a poly-rA synthetic matrix in the presence of an oligo-dT12-18 primer and of a radiolabeled substrate, [^3H-methyl]thymidine-5′-triphosphate ([^3H]TPP), makes it possible to assay the enzymatic activity of RT. […] The β radioactivity is quantified by means of a scintillation counter (Packard Bell). […]
compound,measurement,setting,value
"Cc1cn([C@H]2C[C@H](N=[N+]=[N-])[C@@H](CO)O2)c(=O)[nH]c1=O [AZT, 3′-azido-3′-deoxythymidine, reference compound]",inhibition of integration of the provirus (in words),HIV provirus,perfect
"CC(=O)N[C@@H](CSC(C)=O)C(=O)NCCSC(C)=O [I-176, N-(N,S-bisacetyl-L-cysteinyl)-S-acetylcysteamine]",cytotoxicity (in words),"MDMs; FIG. 12, at the dose tested",cytotoxic
same,toxicity (in words),"MDMs; MDMs, 150 μM, second series in DMSO",slightly toxic
"CC(=O)N[C@@H](CSC(=O)C(C)C)C(=O)NCCSC(C)=O [I-177, N-(N-acetyl-S-isobutyryl-L-cysteinyl)-S-acetylcysteamine]",antiviral activity (in words),HIV-1/Ba-L,activities similar to that of I-152
"CC(=O)N[C@@H](CSC(=O)C(C)(C)C)C(=O)NCCSC(C)=O [I-178, N-(N-acetyl-S-pivaloyl-L-cysteinyl)-S-acetylcysteamine]",antiviral activity (in words),HIV-1/Ba-L,activities similar to that of I-152
"NCCS [MEA, cysteamine, reference compound]",EC50,HIV-1/Ba-L,0.3 mM
same,dose from which cytotoxic,PBMCs,500 µM
same,decrease of the viability of MDMs,"MDMs; MDMs, 500 μM",65%
same,cytotoxicity at antiviral doses (in words),MDMs; MDMs,cytotoxic
same,inhibition of viral replication (in words),HIV-1 LAI [1],do not inhibit viral replication
same,dose from which cytotoxic,PBLs,500 µM
same,decrease of RT activity,[2]; exp. 1,29±1%
same,decrease of RT activity,[2]; exp. 2,48±4%
same,intracellular glutathione at high concentration (in words),[3]; 500 μM,decrease
same,effect on intracellular level of glutathione (in words),[3],does not significantly alter the intracellular level of glutathione
same,regeneration of GSH under conditions of stress (in words),GSH,ineffective
same,antiviral activity (in words),HIV-1 LAI [4],do not have or have a very slight antiviral activity
"CC(=O)N[C@@H](CS)C(=O)O [NAC, N-Acetyl-L-cysteine]",EC50,HIV-1/Ba-L,9.4 mM
same,cytotoxicity,"MDMs; MDMs, 15 mM",70%
same,cytotoxicity,"MDMs; MDMs, 40 mM",91%
same,cytotoxicity at antiviral doses (in words),MDMs; MDMs,cytotoxic
same,inhibition of viral replication (in words),HIV-1 LAI [1],do not inhibit viral replication
same,inhibiting activity with respect to RT (in words),[2]; acellular system,do not exhibit an inhibiting activity
same,effect on intracellular level of glutathione (in words),[3],better at increasing the intracellular level of glutathione
same,intracellular concentration of total glutathione,[3]; dose 15 mM,~2.64 ± 0.13 µM
same,regeneration of GSH under conditions of stress (in words),GSH,ineffective
same,antiviral activity (in words),HIV-1 LAI [4],do not have or have a very slight antiviral activity
heparin,inhibition of RT activity (in words),"[2]; 1 mg/ml, acellular",completely inhibits
